Measured values reported in US20250134861A1, “COMPOSITIONS COMPRISING 5-METHOXY-N,N-DIMETHYLTRYPTAMINE (5-MEO-DMT) FOR USE IN TREATING MENTAL DISORDERS” (GH RESEARCH IRELAND LIMITED, priority 2019, published 2025).

How the values were obtained:
[1] = system: patients with treatment-resistant depression; conditions: in vivo; cited from earlier work
[2] = system: patients with personality trait disturbance or anxiety; conditions: LSD as an aid to psychotherapy; cited from earlier work
[3] = system: patients suffering from terminal state of cancer; conditions: LSD treatment; cited from earlier work
[4] = system: patients with anxiety associated with life-threatening diseases; conditions: 12 patients; two months follow-up; cited from earlier work
[5] = system: patients with alcohol dependence; conditions: therapy with LSD; cited from earlier work
[6] = oral; cited from earlier work
[7] = system: patients in a treatment program of alcoholism; conditions: LSD together with psychotherapy vs psychotherapy alone; cited from earlier work
[8] = Clinical trial of inhaled 5-MeO-DMT in healthy volunteers: 5-MeO-DMT and bufotenine plasma levels; assay type: in vivo, human; conditions: all other samples (1 hour and 3 hours) after inhaled 5-MeO-DMT
Description: The trial consisted of two parts: Part A, where single doses of 5-MeO-DMT dosage amounts of 2 mg, 6 mg, 12 mg and 18 mg were administered; and Part B, where an initial 5-MeO-DMT dosage amount of 6 mg was administered, and then, unless the participant had already experienced a peak psychedelic experience based on the PPEQ or the supervising physician had decided that further dose increases were inappropriate based on observed side effects, further subsequent dosage amounts of 12 mg and 18 mg were administered with about 3 hours in between each administration. […] Pharmacokinetic analysis of 5-MeO-DMT and bufotenine plasma levels was performed at 1 hour and 3 hours after drug administration in Part A, and at 3 hours after drug administration in Part B.

[9] = biological target: 5-HT2A receptor (Homo sapiens, UniProt P28223); conditions: compared with 5-MeO-DMT; cited from earlier work
Sequence of 5-HT2A receptor (P28223 whole entry): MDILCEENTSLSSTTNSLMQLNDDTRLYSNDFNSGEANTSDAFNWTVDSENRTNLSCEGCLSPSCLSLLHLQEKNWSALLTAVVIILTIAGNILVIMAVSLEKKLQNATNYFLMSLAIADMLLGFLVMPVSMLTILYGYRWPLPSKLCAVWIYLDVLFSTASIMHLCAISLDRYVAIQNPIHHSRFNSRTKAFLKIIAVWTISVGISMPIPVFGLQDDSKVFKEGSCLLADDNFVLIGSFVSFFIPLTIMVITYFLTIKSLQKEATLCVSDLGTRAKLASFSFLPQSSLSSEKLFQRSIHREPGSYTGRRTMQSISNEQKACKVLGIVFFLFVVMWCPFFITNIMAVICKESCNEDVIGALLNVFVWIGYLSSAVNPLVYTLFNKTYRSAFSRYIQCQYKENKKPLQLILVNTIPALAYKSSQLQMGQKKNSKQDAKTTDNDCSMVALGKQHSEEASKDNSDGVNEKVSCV

CN(C)CCc1c[nH]c2cccc(OP(=O)(O)O)c12 [psilocybin]
Frequently reported side effects [1]: anxiety, headache and nausea

CCN(CC)C(=O)[C@@H]1C=C2c3cccc4[nH]cc(c34)C[C@H]2N(C)C1 [LSD, lysergic acid diethylamide]
Patients with outcome of "much improved" or "improved" [2]: over 90%
Fraction of patients who improved in varying degrees [3]: about two-thirds
Anxiety measures [4]: significant effects
Patients changed (stop drinking or are much improved) [5]: 50%
Duration of acute psychedelic effects [6]: several hours
Rates of abstinence or improvement [7]: higher rates of abstinence or improvement

CN(C)CCc1c[nH]c2ccc(O)cc12 [bufotenine]
Bufotenine (5-MeO-DMT metabolite) plasma levels [8]: undetectable
Affinity for the 5-HT2A receptor [9]: much higher affinity than 5-MeO-DMT itself
